Experiments:
Assay type in all cases: in vivo
[1] = tested on: redroot pigweed (Amaranthus retroflexus, AMARE); test: Pre-emerge test, greenhouse herbicide activity screening; details: pre-emerge, 14 days after application, rating scale 0-100
In short: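 Herbicidal damage is scored 0 (none) to 100 (complete plant death) two weeks after a simulated field spray. Rates span 15–1000 g ai/ha, delivered in acetone at 187 l/ha. For post-emergence treatments, plants have 2–3 leaves and the spray carries 0.25% v/v non-ionic surfactant.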

[2] = tested on: barnyardgrass (Echinochloa crus-galli, ECHCG); test: as above; details: pre-emerge, 14 days after application, rating scale 0-100
In short: (§1)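 Fourteen days after spraying, crop and weed injury was graded visually from 0, no effect, to 100, every plant dead. Test substances were dissolved in acetone and applied at 15–1000 g ai/ha with a flat-fan nozzle. Application was either pre-emergence, one day after sowing, or post-emergence at the 2–3 leaf stage.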

[3] = tested on: common ragweed (Ambrosia artemisizfolia L., AMBEL); test: as above; details: pre-emerge, 14 days after application, rating scale 0-100
In short: as §1

[4] = tested on: green foxtail (Setaria viridis, SETVI); test: as above; details: pre-emerge, 14 days after application, rating scale 0-100
In short: as §1

[5] = tested on: ivyleaf morningglory (Ipomoea hederacea, IPOHE); test: as above; details: pre-emerge, 14 days after application, rating scale 0-100
In short: as §1

[6] = tested on: johnsongrass (Sorghum halepense, SORHA); test: as above; details: pre-emerge, 14 days after application, rating scale 0-100
In short: as §1

[7] = tested on: lambsquarters (Chenopodium album, CHEAL); test: as above; details: pre-emerge, 14 days after application, rating scale 0-100
In short: as §1

[8] = tested on: large crabgrass (Digitaria sanguinalis, DIGSA); test: as above; details: pre-emerge, 14 days after application, rating scale 0-100
In short: as §1

[9] = tested on: sicklepod (Cassia obtusifolia, CASOB); test: as above; details: pre-emerge, 14 days after application, rating scale 0-100
In short: as §1

[10] = tested on: velvetleaf (Abutilon theophrasti, ABUTH); test: as above; details: pre-emerge, 14 days after application, rating scale 0-100
In short: as §1

[11] = tested on: field corn (Zea mays L., var. Dekalb 535, CORN); test: Pre-emerge test, crop safety; details: pre-emerge, 14 days after application, rating scale 0-100
In short: as §1

[12] = tested on: upland rice (Oryza sp., var. Tebonnet, RICE); test: Pre-emerge test, crop safety; details: pre-emerge, 14 days after application, rating scale 0-100
In short: as §1

[13] = tested on: barnyardgrass (Echinochloa crus-galli, ECHCG); test: Post-emerge test, greenhouse herbicide activity screening; details: 14 days after application; for Post-emerge Herbicidal Activity, phytotoxicity rating ECHCG: rating scale 0-100 (0 no damage, 100 complete death); for Post-emerge Herbicidal Activity ECHCG (phytotoxicity rating): rating scale 0-100
In short: (§2)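 Visual ratings on a 0-100 scale (0 no damage, 100 all plants dead) were taken at 14 days after treatment. Rates of 15-1000 g ai/ha in acetone, 187 l/ha, were sprayed onto soil one day after planting (pre-emerge) or onto 2-3 leaf plants with 0.25% v/v surfactant (post-emerge).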

[14] = tested on: green foxtail (Setaria viridis, SETVI); test: as above; details: 14 days after application; for Post-emerge Herbicidal Activity, phytotoxicity rating SETVI: rating scale 0-100 (0 no damage, 100 complete death); for Post-emerge Herbicidal Activity SETVI (phytotoxicity rating): rating scale 0-100
In short: as §2

[15] = tested on: ivyleaf morningglory (Ipomoea hederacea, IPOHE); test: as above; details: 14 days after application; for Post-emerge Herbicidal Activity, phytotoxicity rating IPOHE: rating scale 0-100 (0 no damage, 100 complete death); for Post-emerge Herbicidal Activity IPOHE (phytotoxicity rating): rating scale 0-100
In short: as §2

[16] = tested on: johnsongrass (Sorghum halepense, SORHA); test: as above; details: 14 days after application; for Post-emerge Herbicidal Activity, phytotoxicity rating SORHA: rating scale 0-100 (0 no damage, 100 complete death); for Post-emerge Herbicidal Activity SORHA (phytotoxicity rating): rating scale 0-100
In short: as §2

[17] = tested on: lambsquarters (Chenopodium album, CHEAL); test: as above; details: 14 days after application; for Post-emerge Herbicidal Activity, phytotoxicity rating CHEAL: rating scale 0-100 (0 no damage, 100 complete death); for Post-emerge Herbicidal Activity CHEAL (phytotoxicity rating): rating scale 0-100
In short: as §2

[18] = tested on: large crabgrass (Digitaria sanguinalis, DIGSA); test: as above; details: 14 days after application; for Post-emerge Herbicidal Activity, phytotoxicity rating DIGSA: rating scale 0-100 (0 no damage, 100 complete death); for Post-emerge Herbicidal Activity DIGSA (phytotoxicity rating): rating scale 0-100
In short: as §2

[19] = tested on: redroot pigweed (Amaranthus retroflexus, AMARE); test: as above; details: 14 days after application
In short: as §2

[20] = tested on: sicklepod (Cassia obtusifolia, CASOB); test: as above; details: 14 days after application; for Post-emerge Herbicidal Activity, phytotoxicity rating CASOB: rating scale 0-100 (0 no damage, 100 complete death); for Post-emerge Herbicidal Activity CASOB (phytotoxicity rating): rating scale 0-100
In short: as §2

[21] = tested on: velvetleaf (Abutilon theophrasti, ABUTH); test: as above; details: 14 days after application; for Post-emerge Herbicidal Activity, phytotoxicity rating ABUTH: rating scale 0-100 (0 no damage, 100 complete death); for Post-emerge Herbicidal Activity ABUTH (phytotoxicity rating): rating scale 0-100
In short: as §2

[22] = tested on: field corn (Zea mays L., var. Dekalb 535, CORN); test: Post-emerge test, crop safety; details: 14 days after application; for Post-emerge phytotoxicity rating CORN (crop damage): rating scale 0-100 (0 no damage, 100 complete death); for Post-emerge Herbicidal Activity CORN (crop damage rating): rating scale 0-100
In short: as §1

[23] = tested on: upland rice (Oryza sp., var. Tebonnet, RICE); test: Post-emerge test, crop safety; details: 14 days after application; for Post-emerge phytotoxicity rating RICE (crop damage): rating scale 0-100 (0 no damage, 100 complete death); for Post-emerge Herbicidal Activity RICE (crop damage rating): rating scale 0-100
In short: as §1

CCOC(=O)C(Cl)Cc1c(C)c(Cl)cc(F)c1-n1c(=O)cc(C(F)(F)F)n(C)c1=O (centres unmarked) [14-54]
phytotoxicity rating AMARE ([1]; 63 g ai/ha): 20 | phytotoxicity rating AMARE ([1]; 250 g ai/ha): 85 | phytotoxicity rating ECHCG ([2]; 63 g ai/ha): 0 | phytotoxicity rating ECHCG ([2]; 250 g ai/ha): 0 | phytotoxicity rating AMBEL ([3]; 63 g ai/ha): 0 | phytotoxicity rating AMBEL ([3]; 250 g ai/ha): 0 | phytotoxicity rating SETVI ([4]; 63 g ai/ha): 20 | phytotoxicity rating SETVI ([4]; 250 g ai/ha): 80 | phytotoxicity rating IPOHE ([5]; 63 g ai/ha): 0 | phytotoxicity rating IPOHE ([5]; 250 g ai/ha): 40 | phytotoxicity rating SORHA ([6]; 63 g ai/ha): 0 | phytotoxicity rating SORHA ([6]; 250 g ai/ha): 30 | phytotoxicity rating CHEAL ([7]; 63 g ai/ha): 10 | phytotoxicity rating CHEAL ([7]; 250 g ai/ha): 100 | phytotoxicity rating DIGSA ([8]; 63 g ai/ha): 0 | phytotoxicity rating DIGSA ([8]; 250 g ai/ha): 30 | phytotoxicity rating CASOB ([9]; 63 g ai/ha): 0 | phytotoxicity rating CASOB ([9]; 250 g ai/ha): 10 | phytotoxicity rating ABUTH ([10]; 63 g ai/ha): 0 | phytotoxicity rating ABUTH ([10]; 250 g ai/ha): 70 | phytotoxicity rating CORN ([11]; 63 g ai/ha): 0 | phytotoxicity rating CORN ([11]; 250 g ai/ha): 0 | phytotoxicity rating RICE ([12]; 63 g ai/ha): 0 | phytotoxicity rating RICE ([12]; 250 g ai/ha): 15 | Post-emerge Herbicidal Activity, phytotoxicity rating ECHCG ([13]; Rate 63 g ai/ha): 30 | Post-emerge Herbicidal Activity, phytotoxicity rating ECHCG ([13]; Rate 250 g ai/ha): 30 | Post-emerge Herbicidal Activity, phytotoxicity rating SETVI ([14]; Rate 63 g ai/ha): 10 | Post-emerge Herbicidal Activity, phytotoxicity rating SETVI ([14]; Rate 250 g ai/ha): 10 | Post-emerge Herbicidal Activity, phytotoxicity rating IPOHE ([15]; Rate 63 g ai/ha): 30 | Post-emerge Herbicidal Activity, phytotoxicity rating IPOHE ([15]; Rate 250 g ai/ha): 80 | Post-emerge Herbicidal Activity, phytotoxicity rating SORHA ([16]; Rate 63 g ai/ha): 0 | Post-emerge Herbicidal Activity, phytotoxicity rating SORHA ([16]; Rate 250 g ai/ha): 0 | Post-emerge Herbicidal Activity, phytotoxicity rating CHEAL ([17]; Rate 63 g ai/ha): 20 | Post-emerge Herbicidal Activity, phytotoxicity rating CHEAL ([17]; Rate 250 g ai/ha): 60 | Post-emerge Herbicidal Activity, phytotoxicity rating DIGSA ([18]; Rate 63 g ai/ha): 0 | Post-emerge Herbicidal Activity, phytotoxicity rating DIGSA ([18]; Rate 250 g ai/ha): 10 | Post-emerge Herbicidal Activity, phytotoxicity rating AMARE ([19]; Rate 63 g ai/ha, rating scale 0-100 (0 no damage, 100 complete death)): 40 | Post-emerge Herbicidal Activity, phytotoxicity rating AMARE ([19]; Rate 250 g ai/ha, rating scale 0-100 (0 no damage, 100 complete death)): 50 | Post-emerge Herbicidal Activity, phytotoxicity rating CASOB ([20]; Rate 63 g ai/ha): 0 | Post-emerge Herbicidal Activity, phytotoxicity rating CASOB ([20]; Rate 250 g ai/ha): 30 | Post-emerge Herbicidal Activity, phytotoxicity rating ABUTH ([21]; Rate 63 g ai/ha): 60 | Post-emerge Herbicidal Activity, phytotoxicity rating ABUTH ([21]; Rate 250 g ai/ha): 80 | Post-emerge phytotoxicity rating CORN (crop damage) ([22]; Rate 63 g ai/ha): 5 | Post-emerge phytotoxicity rating CORN (crop damage) ([22]; Rate 250 g ai/ha): 15 | Post-emerge phytotoxicity rating RICE (crop damage) ([23]; Rate 63 g ai/ha): 10 | Post-emerge phytotoxicity rating RICE (crop damage) ([23]; Rate 250 g ai/ha): 10

CCOC(=O)C(Cl)Cc1c(OC)c(Cl)cc(F)c1-n1nc(C(F)(F)F)n(C)c1=O (centres unmarked) [14-61]
phytotoxicity rating AMARE ([1]; 63 g ai/ha): 30 | phytotoxicity rating AMARE ([1]; 250 g ai/ha): 95 | phytotoxicity rating ECHCG ([2]; 63 g ai/ha): 0 | phytotoxicity rating ECHCG ([2]; 250 g ai/ha): 0 | phytotoxicity rating AMBEL ([3]; 63 g ai/ha): 0 | phytotoxicity rating AMBEL ([3]; 250 g ai/ha): 0 | phytotoxicity rating SETVI ([4]; 63 g ai/ha): 0 | phytotoxicity rating SETVI ([4]; 250 g ai/ha): 60 | phytotoxicity rating IPOHE ([5]; 63 g ai/ha): 0 | phytotoxicity rating IPOHE ([5]; 250 g ai/ha): 20 | phytotoxicity rating SORHA ([6]; 63 g ai/ha): 0 | phytotoxicity rating SORHA ([6]; 250 g ai/ha): 20 | phytotoxicity rating CHEAL ([7]; 63 g ai/ha): 0 | phytotoxicity rating CHEAL ([7]; 250 g ai/ha): 80 | phytotoxicity rating DIGSA ([8]; 63 g ai/ha): 0 | phytotoxicity rating DIGSA ([8]; 250 g ai/ha): 40 | phytotoxicity rating CASOB ([9]; 63 g ai/ha): 0 | phytotoxicity rating CASOB ([9]; 250 g ai/ha): 0 | phytotoxicity rating ABUTH ([10]; 63 g ai/ha): 0 | phytotoxicity rating ABUTH ([10]; 250 g ai/ha): 40 | phytotoxicity rating CORN ([11]; 63 g ai/ha): 0 | phytotoxicity rating CORN ([11]; 250 g ai/ha): 0 | phytotoxicity rating RICE ([12]; 63 g ai/ha): 0 | phytotoxicity rating RICE ([12]; 250 g ai/ha): 0 | Post-emerge Herbicidal Activity ECHCG (phytotoxicity rating) ([13]; 63 g ai/ha): 0 | Post-emerge Herbicidal Activity ECHCG (phytotoxicity rating) ([13]; 250 g ai/ha): 60 | Post-emerge Herbicidal Activity SETVI (phytotoxicity rating) ([14]; 63 g ai/ha): 0 | Post-emerge Herbicidal Activity SETVI (phytotoxicity rating) ([14]; 250 g ai/ha): 20 | Post-emerge Herbicidal Activity IPOHE (phytotoxicity rating) ([15]; 63 g ai/ha): 20 | Post-emerge Herbicidal Activity IPOHE (phytotoxicity rating) ([15]; 250 g ai/ha): 50 | Post-emerge Herbicidal Activity SORHA (phytotoxicity rating) ([16]; 63 g ai/ha): 0 | Post-emerge Herbicidal Activity SORHA (phytotoxicity rating) ([16]; 250 g ai/ha): 20 | Post-emerge Herbicidal Activity CHEAL (phytotoxicity rating) ([17]; 63 g ai/ha): 40 | Post-emerge Herbicidal Activity CHEAL (phytotoxicity rating) ([17]; 250 g ai/ha): 75 | Post-emerge Herbicidal Activity DIGSA (phytotoxicity rating) ([18]; 63 g ai/ha): 0 | Post-emerge Herbicidal Activity DIGSA (phytotoxicity rating) ([18]; 250 g ai/ha): 70 | Post-emerge Herbicidal Activity AMARE (phytotoxicity rating) ([19]; 63 g ai/ha, rating scale 0-100 (0 no damage, 100 complete death)): 20 | Post-emerge Herbicidal Activity AMARE (phytotoxicity rating) ([19]; 250 g ai/ha, rating scale 0-100): 60 | Post-emerge Herbicidal Activity CASOB (phytotoxicity rating) ([20]; 63 g ai/ha): 0 | Post-emerge Herbicidal Activity CASOB (phytotoxicity rating) ([20]; 250 g ai/ha): 30 | Post-emerge Herbicidal Activity ABUTH (phytotoxicity rating) ([21]; 63 g ai/ha): 30 | Post-emerge Herbicidal Activity ABUTH (phytotoxicity rating) ([21]; 250 g ai/ha): 60 | Post-emerge Herbicidal Activity CORN (crop damage rating) ([22]; 63 g ai/ha): 0 | Post-emerge Herbicidal Activity CORN (crop damage rating) ([22]; 250 g ai/ha): 70 | Post-emerge Herbicidal Activity RICE (crop damage rating) ([23]; 63 g ai/ha): 0 | Post-emerge Herbicidal Activity RICE (crop damage rating) ([23]; 250 g ai/ha): 30

From US6355799B1, “Substituted benzene compounds, process for their preparation, and herbicidal and defoliant compositions containing them” (ISK Americas Incorporated, priority 1997, dated 2002)
